Assay results: patent US20120302748A1, “TREATMENT OR PROPHYLAXIS OF PROLIFERATIVE CONDITIONS” (THE UNIVERSITY COURT OF THE UNIVERSITY OF DUNDEE, priority 2009, published 2012)
Where two headings read alike, the source gives them in different places.

Experiments:
[1] = biological target: T1, CYP1B1 (Homo sapiens, UniProt Q16678); assay: CYP1B1 substrate prediction model (Gaussian Kernel weighted k-NN); details: predicted versus actual
T1 sequence (Q16678 1-543): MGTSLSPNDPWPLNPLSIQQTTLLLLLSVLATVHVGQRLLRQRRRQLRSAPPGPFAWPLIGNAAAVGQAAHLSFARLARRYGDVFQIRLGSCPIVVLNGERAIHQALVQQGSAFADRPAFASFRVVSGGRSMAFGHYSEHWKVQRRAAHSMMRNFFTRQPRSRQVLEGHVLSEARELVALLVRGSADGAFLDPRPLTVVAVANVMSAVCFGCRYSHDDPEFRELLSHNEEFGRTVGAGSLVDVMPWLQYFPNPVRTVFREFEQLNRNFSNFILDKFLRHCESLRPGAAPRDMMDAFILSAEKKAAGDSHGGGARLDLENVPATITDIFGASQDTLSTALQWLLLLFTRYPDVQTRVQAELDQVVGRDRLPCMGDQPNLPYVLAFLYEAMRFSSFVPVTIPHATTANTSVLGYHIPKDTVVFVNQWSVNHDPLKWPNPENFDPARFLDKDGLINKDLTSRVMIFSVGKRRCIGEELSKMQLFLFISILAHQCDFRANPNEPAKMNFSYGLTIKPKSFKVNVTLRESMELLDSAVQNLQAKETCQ

[2] = biological target: T1, CYP1B1; assay: in vitro
[3] = biological target: T1, CYP1B1; assay: Supersomal CYP1B1 fragmentation of coumarin model prodrugs (kinetic fluorimetry); type: biochemical; parameters: purchased BD Gentest, Oxford, UK; details: for Specific fragmentation activity CYP1B1: 10 μmol dm^−3 prodrug, 10 pmol enzyme, pH 7.4, 37° C., mean ± standard deviation of three
Description: (§1) Supersomal™ enzyme metabolism was started by adding a stock solution of prodrug dissolved in DMSO to give a final concentration of 10 μmol dm^−3 prodrug and 0.5% DMSO. HLM screening used 60 microlitre microsomes, 100 μmol dm^−3 NADPH, in 10 mmol dm^−3 potassium phosphate buffer at pH 7.4 and 37° C., in 1.5 ml total reaction volume.
(§2) Therefore, enzymatic hydroxylation of the hetero-aromatic trigger and resultant linker fragmentation can be monitored in real time by release of the coumarin anion by kinetic fluorimetry.
(§3) Release of the coumarin anion indicative of linker fragmentation was monitored using a 1 cm path length fluorescence cell in a Cary Eclipse kinetic flourimeter with excitation and emission slits set at 5 nm. Coumarin anion release from compounds of the invention was detected at the excitation wavelength λex=350 nm and the emission wavelength λem=450 nm. Change in fluorescence intensity was quantified against a linear calibration plot of fluorescence intensity versus coumarin concentration (0 to 3.5 μmol dm^−3) in 10 mmol dm^−3 potassium phosphate buffer at pH 7.4 using the same instrument settings as for enzyme metabolism.

[4] = test system: human liver microsomes (HLM); assay: Pooled human liver microsome (HLM) fragmentation of coumarin model prodrugs; type: in vitro ADME; details: 60 μl HLM in 1.5 ml, pH 7.4, 37° C.; mean ± standard deviation of three
Description: as §1, §2, §3

[5] = biological target: T2, CYP1A2 (Homo sapiens, UniProt P05177); assay: Supersomal CYP1A2 fragmentation of coumarin model prodrugs (kinetic fluorimetry); type: biochemical; details: 10 μmol dm^−3 prodrug, 10 pmol enzyme, pH 7.4, 37° C.; mean ± standard deviation of three
T2 construct: purchased BD Gentest, Oxford, UK
T2 sequence (P05177 2-516 limits assumed): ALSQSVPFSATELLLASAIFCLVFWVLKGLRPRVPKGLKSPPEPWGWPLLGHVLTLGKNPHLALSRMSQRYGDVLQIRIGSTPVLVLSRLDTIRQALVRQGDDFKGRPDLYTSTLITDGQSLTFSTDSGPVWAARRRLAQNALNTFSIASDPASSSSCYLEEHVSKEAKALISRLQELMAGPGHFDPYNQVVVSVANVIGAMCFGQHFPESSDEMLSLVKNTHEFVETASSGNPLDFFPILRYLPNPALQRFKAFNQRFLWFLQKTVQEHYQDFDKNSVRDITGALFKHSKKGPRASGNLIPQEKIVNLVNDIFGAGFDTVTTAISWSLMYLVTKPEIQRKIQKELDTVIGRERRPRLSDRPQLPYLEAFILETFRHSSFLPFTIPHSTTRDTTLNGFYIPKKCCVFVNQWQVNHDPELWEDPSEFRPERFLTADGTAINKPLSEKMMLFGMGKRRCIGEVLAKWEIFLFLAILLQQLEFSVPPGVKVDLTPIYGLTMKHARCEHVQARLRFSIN
Description: as §1, §2, §3

[6] = biological target: T3, CYP1A1 (Homo sapiens, UniProt P04798); assay: Supersomal CYP1A1 fragmentation of coumarin model prodrugs (kinetic fluorimetry); type: biochemical; parameters: purchased BD Gentest, Oxford, UK; details: 10 μmol dm^−3 prodrug, 10 pmol enzyme, pH 7.4, 37° C.; mean ± standard deviation of three
T3 sequence (P04798 1-512): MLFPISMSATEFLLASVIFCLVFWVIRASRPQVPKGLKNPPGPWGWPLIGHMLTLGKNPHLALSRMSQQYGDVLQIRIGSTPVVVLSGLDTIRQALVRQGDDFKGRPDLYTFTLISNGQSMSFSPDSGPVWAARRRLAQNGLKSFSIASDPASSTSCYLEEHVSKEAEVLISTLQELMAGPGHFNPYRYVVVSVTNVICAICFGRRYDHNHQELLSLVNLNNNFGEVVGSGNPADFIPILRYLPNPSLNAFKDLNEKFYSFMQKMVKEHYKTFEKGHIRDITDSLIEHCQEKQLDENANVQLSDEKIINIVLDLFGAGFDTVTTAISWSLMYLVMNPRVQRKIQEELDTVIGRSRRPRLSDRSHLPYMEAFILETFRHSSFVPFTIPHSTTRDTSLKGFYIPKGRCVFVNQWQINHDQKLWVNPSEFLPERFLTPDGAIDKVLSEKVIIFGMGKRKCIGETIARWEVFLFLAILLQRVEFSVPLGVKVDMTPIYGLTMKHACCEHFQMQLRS
Description: as §1, §2, §3

[7] = test system: CHO/CYP1B1 cells
[8] = test system: UT-SCC-14 tumour cells; assay: Cytotoxicity in primary HNSCC tumour cell line UT-SCC-14 (MTS assay); details: Homo sapiens, 72 h, read-out: cytotoxicity IC50 UT-SCC-14
Description: A UT-SCC-14 tumour cell suspension at 2000 cells per well on a 96-well plate and if necessary add fresh media to give a total volume per well of 100 μl. The cells were allowed to attach for 4 h in an incubator. […] The final concentration of ethanol 0.2% was found not to effect the growth characteristics of the UT-SCC-14 cell line. The UT-SCC-14 cells were incubated with test compound for 72 h after which time all aspirated and replaced with 100 μl of fresh medium to compensate for the loss of medium due to evaporation. The cells were incubated with 20 μl of the MTS assay reagent for 1.5 h and the absorbance per well at 510 nm measured using a plate reader. The mean absorbance and standard deviation for each test compound concentration was calculated versus a series of controls including (a) cells plus medium, (b) cell plus medium containing ethanol 0.2%, (c) medium alone, and (d) medium containing ethanol 0.2% and a range of test compound concentrations from 0 to 100 μmol dm^−3.

[9] = test system: CYP1A1; assay: in vitro; details: Chinese hamster
[10] = test system: CHO/CYP1B1 cells; assay: cells; details: Cricetulus griseus
[11] = biological target: T1, CYP1B1; assay: CYP1B1 substrate inhibition, P450-Glo Luciferin-CEE luminescent assay; details: human
[12] = in vitro; details: Chinese hamster

Structure (SMILES)	% CYP1B1 substrate inhibition accuracy [1] [%]	inhibition at 0.5 mmol dm^−3 [2] [%]	Specific fragmentation activity CYP1B1 [3]	Specific fragmentation activity HLM [4]	Specific fragmentation activity CYP1A2 [5]	other results
C=C[C@H]1C[N@@]2CC[C@H]1C[C@@H]2[C@@H](O)c1ccnc2ccc(OC)cc12 [quinidine]	64	1.63 ± 0.34				
Cc1cc(=O)oc2cc(OCc3cc4cc(Cl)ccc4o3)ccc12 [VG028-05, 7-((5-chlorobenzofuran-2-yl)methoxy)-4-methyl-2H-chromen-2-one]			6.67 ± 0.01 pmol coumarin min^−1 pmol cytochrome P450^−1			
COc1cc(OC)c2oc(COc3ccc4c(C)cc(=O)oc4c3)cc2c1 [VG035-05, 7-((5,7-dimethoxybenzofuran-2-yl)methoxy)-4-methyl-2H-chromen-2-one]	96	97.34 ± 0.32	13.65±1.00 pmol coumarin min^−1 pmol cytochrome P450^−1	no release	no release	Specific fragmentation activity CYP1A1 [6]: no release
Oc1ccc(C=Cc2cc(O)cc(O)c2)cc1 [resveratrol]	95	72.34 ± 0.56				
O=P(O)(NCCCl)NCCCl [Cl-IPM, N,N-bis(2-chloro-ethyl)phosphoramide, reference compound]						IC50 ([7]; Chinese hamster): 8 ± 5 nM
COc1cc(OC)c2oc(COC(=O)Nc3ccn(C4OC(CO)C(O)C4(F)F)c(=O)n3)cc2c1 (stereo not drawn) [SU048-04, (5,7-dimethoxybenzofuran-2-yl)methyl 1-(3,3-difluoro-4-hydroxy-5-(hydroxymethyl)-tetrahydrofuran-2-yl)-2-oxo-1,2-dihydropyrimidin-4-ylcarbamate]						IC50 [8]: 940 ± 20 nM
Nc1ccc(S(=O)(=O)Nc2ccnn2-c2ccccc2)cc1 [sulfaphenazole]	68	2.89 ± 0.15				
Cc1cc(=O)oc2cc(OCc3cc4cc(Br)ccc4o3)ccc12 [VG035-04, 7-((5-bromobenzofuran-2-yl)methoxy)-4-methyl-2H-chromen-2-one]			8.85 ± 0.28 pmol coumarin min^−1 pmol cytochrome P450^−1			
Cc1cc(=O)oc2cc(OCc3cc4cc(F)ccc4o3)ccc12 [VG015-05, 7-((5-fluorobenzofuran-2-yl)methoxy)-4-methyl-2H-chromen-2-one]			3.16 ± 0.28 pmol coumarin min^−1 pmol cytochrome P450^−1			
CCOc1ccc2nc3ccc(=O)cc-3oc2c1 [ethoxyresorufin, 7-ethoxyresorufin]	95	92.13 ± 0.56				
COc1cc(OC)c2oc(COC(=O)Nc3ccc4c(C)cc(=O)oc4c3)cc2c1 [VG041-05, (5,7-dimethoxybenzofuran-2-yl)methyl 4-methyl-2-oxo-2H-chromen-7-ylcarbamate]			no release	no release	no release	
Cc1cc(=O)oc2cc(NC(=O)OCc3cc4ccccc4o3)ccc12 [SU018-03, benzofuran-2-ylmethyl 4-methyl-2-oxo-2H-chromen-7-ylcarbamate]			no release	no release	no release	
Cc1cc(=O)oc2cc(NC(=O)OCc3cc4cc(Br)ccc4o3)ccc12 [VG036-05, (5-bromobenzofuran-2-yl)methyl 4-methyl-2-oxo-2H-chromen-7-ylcarbamate]			no release	no release	no release	Specific fragmentation activity CYP1A1 [6]: no release
Cc1cc(=O)oc2cc(OCc3cc4ccccc4o3)ccc12 [SU010A, 7-(benzofuran-2-ylmethoxy)-4-methyl-2H-chromen-2-one]			5.19 ± 0.15 pmol coumarin min^−1 pmol cytochrome P450^−1	22.8 ± 0.69 pmol coumarin min^−1 pmol cytochrome P450^−1		
COc1cccc2cc(COc3ccc4c(C)cc(=O)oc4c3)oc12 [VG029-05, 7-((7-methoxybenzofuran-2-yl)methoxy)-4-methyl-2H-chromen-2-one]			6.45 ± 1.15 pmol coumarin min^−1 pmol cytochrome P450^−1			
Cc1cc(=O)oc2cc(OCc3cc4cc(F)cc(F)c4o3)ccc12 [VG016-05, 7-((5,7-difluorobenzofuran-2-yl)methoxy)-4-methyl-2H-chromen-2-one]	82	2.45 ± 0.32	no release	no release	no release	Specific fragmentation activity CYP1A1 [6]: no release
COc1ccc2oc(COc3ccc4c(C)cc(=O)oc4c3)cc2c1 [VG027-05, 7-((5-methoxybenzofuran-2-yl)methoxy)-4-methyl-2H-chromen-2-one]			11.83 ± 0.15 pmol coumarin min^−1 pmol cytochrome P450^−1	8.98 ± 0.49 pmol coumarin min^−1 pmol cytochrome P450^−1		
COc1cc(OC)c2oc(COP(=O)(NCCCl)NCCCl)cc2c1 [SU025-04]	96					IC50 [9]: 25500 ± 1000 nM; IC50 ratio 72 h (CHO / CHO/CYP1B1) [7]: 1689; IC50 ([10]; 72 h, read-out: Cytotoxicity (IC50) CHO/CYP1B1 72 h): 9 ± 5 nM; IC50 ([10]; 96 h, read-out: Cytotoxicity (IC50) CHO/CYP1B1 96 h): 3 ± 2 nM; IC50 [8]: 50 ± 10 nM; inhibition at 0.5 mmol dm^−3 [11]: 91.22 ± 0.48%; IC50 ([12]; Cytotoxicity (IC50) CHO 72 h): 15200 ± 200 nM; IC50 ([12]; Cytotoxicity (IC50) CHO 96 h): 10100 ± 300 nM; IC50 ([12]; cytotoxicity IC50 in wild-type CHO cells): ≥ 10000 nM
COc1ccc2oc(COC(=O)Nc3ccc4c(C)cc(=O)oc4c3)cc2c1 [VG032-05, (5-methoxybenzofuran-2-yl)methyl 4-methyl-2-oxo-2H-chromen-7-ylcarbamate]			1.53±0.09 pmol coumarin min^−1 pmol cytochrome P450^−1	3.21 ± 0.25 pmol coumarin min^−1 pmol cytochrome P450^−1	no release	CYP1B1 specific fragmentation activity, fold lower than VG027-05 ([3]; carbamate linker versus ether linker): ~6 fold
